According to patent publication US12435045B2, “Tyrosine kinase inhibitors and pharmaceutical application thereof” (JIANGSU CONCORD BIOTECHNOLOGY CO., LTD, priority 2021, dated 2025):

System: 40 L of mesothelioma cell lines
Experiment: cell plate cloning experiment to detect cell proliferation
Assay type: cell-based
Conditions: 30 μM pretreatment; 200 cells/well; results after 10 days; compared with gefitinib 30 μM; FIG. 2
Procedure: Effects of the compound prepared in Example 1 and gefitinib were tested and compared. Experiment 1 included cell plate cloning experiments to detect cell proliferation.
• (1) 30 μM of gefitinib was used to pretreat one group of 40 L of mesothelioma cell lines, 30 μM of the compound prepared in Example 1 were used to pretreat another group of 40 L of mesothelioma cell lines, and phosphate-buffered saline (PBS) was used as a blank control group; • (2) The 40 L of cell lines in different treatment groups were collected; the cells were counted under a microscope, the cells were inoculated in a six-well plate by adjusting the number of cells to 200 cells/well (2 mL) with corresponding complete medium, and the cells were cultured in an incubator containing 5% CO2 at 37° C.; • (3) Fresh complete medium was changed every 3 days; • (4) After about 7-10 days of continuous culture, the culture medium was discarded, the cells were carefully washed with 1×PBS 3 times, and 1 mL of 4% paraformaldehyde was added to each culture dish to fix the cells for 30 minutes. The paraformaldehyde was discarded, and the cells were washed again with 1×PBS 3 times. The cells were stained with crystal violet at room temperature for 10 min, the staining solution was discarded, and the cells were washed with 1×PBS 3 times; and • (5) the cells were pictured with a camera and counted for statistical analysis. 2. […]

SMILES: COc1cc2ncnc(Nc3ccc(F)c(Cl)c3)c2cc1NC(=O)CBr [Example 1, 4-((4-fluoro-3-chlorophenyl)amino)-7-methoxy-6-((N-bromoacetyl)amino)quinazoline]
- ability in inhibiting the proliferation of tumor cells (plate cloning, colony count): significantly better ability in inhibiting the proliferation of tumor cells than gefitinib
